Measured values from US20230024108A1, “ADENOSINE A2A RECEPTOR ANTAGONISTS” (Teon Therapeutics, Inc., priority 2019, published 2023).

What was measured:
[1] = biological target: T1, A1AdoR (Homo sapiens, UniProt P30542); experiment: Adenosine receptor binding assay, A1 ([3H]-DPCPX); details: ratio A1 vs A2A binding
T1 construct: purchased PerkinElmer ES-010-M400UA
T1 sequence (P30542 1-326): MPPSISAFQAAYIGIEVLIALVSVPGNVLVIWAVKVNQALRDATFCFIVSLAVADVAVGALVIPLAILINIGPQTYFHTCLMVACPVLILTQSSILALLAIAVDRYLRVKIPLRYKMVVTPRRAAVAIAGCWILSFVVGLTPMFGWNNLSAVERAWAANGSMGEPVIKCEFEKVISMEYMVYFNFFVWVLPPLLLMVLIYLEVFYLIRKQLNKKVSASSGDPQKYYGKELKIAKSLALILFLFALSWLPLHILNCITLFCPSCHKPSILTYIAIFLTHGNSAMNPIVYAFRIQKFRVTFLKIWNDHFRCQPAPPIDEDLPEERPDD
Method: (§1) Membranes prepared from CHO-K1 cells stably expressing Human AiAdoR (ES-010-M400UA), HEK-293 cells stably expressing human A2A AdoR (RBHA2AM400UA), HEK-293 cells stably expressing human A2B AdoR (ES-013-M400UA) and CHO-K1 cells stably expressing Human A3 AdoR (ES-012-M400UA) were purchased from PerkinElmer (Waltham, Mass., USA) and stored at −80° C. until use. Binding assays are performed using the radioligands. The final concentrations are as follows: [3H]-DPCPX (PerkinElmer, NET974001MC) at 1 nM for A1AdoR; [^3H]-CGS-21680 (PerkinElmer, NET1021250UC) at 6 nM for A2AAdoR, [3H]-DPCPX (PerkinElmer, NET974001MC) at 8 nM for A2BAdoR; [^3H]-HEMADO (ARC, Cat: ART1456) at 1 nM for A3AdoR. Testing compounds are diluted with DMSO to make 8-point 4-fold serial dilution. Nonspecific binding (Low control: LC) and total binding (High control: HC) are determined in the presence or absence of saturated cold ligand. Specific binding is calculated by subtracting nonspecific binding from total binding. All assays are performed in a final volume of 200 μl containing 1 μl of the test compound in DMSO, 100 μl of membrane preparation, and 99 μl of the radioligand in assay buffer (A1AdoR: 25 mM HEPES pH 7.4, 5 mM MgCl2, 1 mM CaCl2), 100 mM NaCl; A2AAdoR: 50 mM Tris HCl pH 7.4, 10 mM MgCl2, 1 mM EDTA; A2BAdoR: 50 mM HEPES pH 7.0, 5 mM MgCl2, 1 mM EDTA; A3AdoR: 25 HEPES pH 7.4, 10 mM MgCl2, 1 mM CaCl2), 0.5% BSA). The incubation is performed at room temperature with shaking at 300 rpm for 1 hour for A1AdoR, A2BAdoR and A3AdoR and 2 hours for A2AAdoR. After the incubation, the assay mixture is filtered through 96 GF/C filter plates (Perkin Elmer #6005174) using Perkin Elmer Filtermate Harvester, and then washed four times with ice-cold washing buffer (A1AdoR: 25 mM HEPES pH 7.4, 5 mM MgCl2, 1 mM CaCl2), 100 mM NaCl; A2AAdoR: 50 mM Tris HCl pH 7.4, 154 mM NaCl; A2BAdoR: 50 mM HEPES pH 6.5, 5 mM MgCl2, 1 mM EDTA, 0.2% BSA; A3AdoR: 50 mM Tris HCl pH 7.4). The filters are dried for 1 hour at 50° C. and [^3H] trapped on filter counted for radioactivity in Perkin Elmer Microscint 20 cocktail (#6013329) using Perkin Elmer MicroBeta2 Reader. The results are expressed as a percent inhibition of the control radioligand specific binding calculated using the following equation: % Inhibition=(1−(Assay well-Average_LC)/(Average_HC−Average_LC))×100%. Data are analyzed and IC50 is calculated using GraphPad Prism 5 and the model “log(inhibitor) vs. response—Variable slope”. The binding affinity of the compounds is determined by using the Cheng and Prusoff equation Ki=IC50/(1+[radioligand]/Kd).

[2] = biological target: T2, human A2A AdoR (Homo sapiens, UniProt P29274); experiment: Adenosine receptor binding assay, A2A ([3H]-CGS-21680); details: membranes of HEK-293 cells expressing human A2A AdoR; read-out: hA2A IC50
T2 construct: purchased PerkinElmer RBHA2AM400UA
Method: as §1

T2 sequence (P29274 whole entry): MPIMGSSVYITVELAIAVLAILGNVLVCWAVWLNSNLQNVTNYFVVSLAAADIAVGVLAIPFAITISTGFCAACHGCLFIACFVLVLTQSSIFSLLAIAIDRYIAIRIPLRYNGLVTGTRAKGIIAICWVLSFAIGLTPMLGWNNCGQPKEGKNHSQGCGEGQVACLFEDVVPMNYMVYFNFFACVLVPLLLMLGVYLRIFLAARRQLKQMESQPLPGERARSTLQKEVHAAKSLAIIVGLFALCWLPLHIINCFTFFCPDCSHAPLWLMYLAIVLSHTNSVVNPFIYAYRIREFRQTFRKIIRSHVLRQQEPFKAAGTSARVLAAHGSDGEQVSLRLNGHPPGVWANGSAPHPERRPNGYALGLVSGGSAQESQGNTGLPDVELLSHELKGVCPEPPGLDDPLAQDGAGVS

SMILES | A1/A2A Selectivity [1] | IC50 [2] [nM]
Cc1c(C(N)=O)n(CCN2CCN(c3ccc(C#N)cc3F)CC2)c2nc(N)n3nc(-c4ccccn4)nc3c12 [5-amino-7-(2-(4-(4-cyano-2-fluorophenyl)piperazin-1-yl)ethyl)-9-methyl-2-(pyridin-2-yl)-7H-pyrrolo[3,2-e][1,2,4]triazolo[1,5-c]pyrimidine-8-carboxamide] | b (greater than 100 but less than or equal to 1000) | ≤ 20
Cc1cnc2c(c1)CN(CCn1nc(Cl)c3c1nc(N)n1nc(-c4ccccn4)nc31)CC2 [9-chloro-7-(2-(3-methyl-7,8-dihydro-1,6-naphthyridin-6(5H)-yl)ethyl)-2-(pyridin-2-yl)-7H-pyrazolo[4,3-e][1,2,4]triazolo[1,5-c]pyrimidin-5-amine] | c (greater than 0 but less than or equal to 100) | ≤ 20
CC#Cc1nc2c3ncn(CCN4CCN(c5cc(-n6cccn6)ccc5F)CC4)c3nc(N)n2n1 | a (greater than 1000) | ≤ 20
CC(C)(Oc1ccc(N2CCN(CCn3cnc4c3nc(N)n3nc(-c5ccccn5)nc43)CC2)c(F)c1)C(=O)O [2-(4-(4-(2-(5-amino-8-(pyridin-2-yl)-3H-[1,2,4]triazolo[5,1-i]purin-3-yl)ethyl)piperazin-1-yl)-3-fluorophenoxy)-2-methylpropanoic acid] | b (greater than 100 but less than or equal to 1000) | ≤ 20
NC(=O)c1c(Cl)c2c(nc(N)n3nc(-c4ccccn4)nc23)n1CCN1CCN(c2ccc(OCC(=O)O)cc2)CC1 [2-(4-(4-(2-(5-amino-8-carbamoyl-9-chloro-2-(pyridin-2-yl)-7H-pyrrolo[3,2-e][1,2,4]triazolo[1,5-c]pyrimidin-7-yl)ethyl)piperazin-1-yl)phenoxy)acetic acid] | b (greater than 100 but less than or equal to 1000) | ≤ 20
NC(=O)c1c(Cl)c2c(nc(N)n3nc(-c4ccccn4)nc23)n1CCN1CCN(c2ncccn2)CC1 [5-amino-9-chloro-2-(pyridin-2-yl)-7-(2-(4-(pyrimidin-2-yl)piperazin-1-yl)ethyl)-7H-pyrrolo[3,2-e][1,2,4]triazolo[1,5-c]pyrimidine-8-carboxamide] | c (greater than 0 but less than or equal to 100) | ≤ 20
CNC(=O)c1c(C)c2c(nc(N)n3nc(-c4ccccn4)nc23)n1CCN1CCCN(c2cc(-c3ncco3)ccc2F)CC1 [5-amino-7-(2-(4-(2-fluoro-5-(oxazol-2-yl)phenyl)-1,4-diazepan-1-yl)ethyl)-N,9-dimethyl-2-(pyridin-2-yl)-7H-pyrrolo[3,2-e][1,2,4]triazolo[1,5-c]pyrimidine-8-carboxamide] | b (greater than 100 but less than or equal to 1000) | ≤ 20
Cc1noc2cc(F)c(N3CCN(CCn4c(C(=O)O)c(C)c5c4nc(N)n4nc(-c6ccccn6)nc54)CC3)cc12 | b (greater than 100 but less than or equal to 1000) | ≤ 20
Nc1nc2c(c(Cl)c(C(=O)NC3CC3)n2CCN2CCN(c3cc(-c4ncco4)ccc3F)CC2)c2nc(-c3ccccn3)nn12 | a (greater than 1000) | ≤ 20
Nc1nc2c(ncn2CCN2CCN(c3cc(-c4ncco4)ccc3F)CC2)c2nc(-c3ccccn3)nn12 [3-(2-(4-(2-fluoro-5-(oxazol-2-yl)phenyl)piperazin-1-yl)ethyl)-8-(pyridin-2-yl)-3H-[1,2,4]triazolo[5,1-i]purin-5-amine] | b (greater than 100 but less than or equal to 1000) | ≤ 20
Cc1c(C(N)=O)n(CCN2CCN(c3ccncc3)CC2)c2nc(N)n3nc(-c4ccccn4)nc3c12 [5-amino-9-methyl-2-(pyridin-2-yl)-7-(2-(4-(pyridin-4-yl)piperazin-1-yl)ethyl)-7H-pyrrolo[3,2-e][1,2,4]triazolo[1,5-c]pyrimidine-8-carboxamide] | c (greater than 0 but less than or equal to 100) | ≤ 20
